From patent US20160089371A1, “Combination of Kinase Inhibitors and Uses Thereof” (INTELLIKINE, LLC, priority 2013, published 2016)
Several values for one entry are separate records, joined by “and”; a condition that tells them apart may be missing. Equal values may be shown once.

Key:
MDA-MB-361 xenografts = assay: Antitumor activity and tumor regrowth, MDA-MB-361 xenografts (Example 42); format: in vivo, Mus musculus
Protocol: (room temperature), shielded from light. The test article Compound A was prepared in 5% NMP+95% PEG400 every 5 to 7 days and stored at approximately 25° C. (room temperature), shielded from light. The control article used in this study was 5% NMP+95% PEG400. Compounds were completely dissolved in NMP by sonication, followed by the addition of an appropriate volume of PEG400, and the final solution was vortexed and sonicated to ensure thorough mixing.
Low-passage MDA-MB-361 cells were grown in Eagle's Minimal Essential Medium (EMEM) media supplemented with 20% fetal bovine serum (FBS) and 1× penicillin/streptomycin (Invitrogen, Carlsbad, Calif., USA) until approximately 80% confluency was reached. Before injection, the cells were detached with GIBCO® trypsin (Invitrogen), washed twice with phosphate-buffered saline (PBS), and resuspended in Roswell Park Memorial Institute (RPMI) media (Invitrogen) without supplements. Cells were resuspended to a final concentration of 5×10^7 cells/mL in RPMI media without supplements. […]
Female 5 to 6-week old female (athymic nu/nu) nude mice were inoculated SC in the flank with 5.0×10^6 MDA-MB-361 cells. Tumor growth was monitored with vernier calipers. The MTV was calculated using the formula V=W^2×L÷2. […] Tumor growth and body weight were measured twice weekly. Percent TGI and body weight change were calculated on Day 29. […] The remaining mice continued on study until Day 65, and tumor size and body weight in these mice were measured every 9 to 11 days.
Antitumor activity was determined by calculating the percent TGI using Equation 1: Percent TGI)=(MTV of the control group−MTV of a treated group)÷MTV of the control group×100
Tumor growth delay was determined by calculating the time until MTV in a given treatment group reached 1000 mm^3 versus the time until MTV in the control group reached 1000 mm^3.
The differences in trends of tumor growth over time between pairs of treatment groups were assessed using linear mixed-effects regression models. These models account for the fact that each animal was measured at multiple time points. […]

[1] = test system: tumor cells harboring PI3K α mutations; assay: Proliferation of tumor cells with or without PI3K α mutations; format: cell-based; settings: FIG. 13
[2] = test system: Akt and S6 phosphorylation; assay: Western blot of PI3K pathway phosphorylation (Akt, S6) in cancer cells; format: cell-based

SMILES: Nc1nc2cc(-c3ccc4ncc(C(=O)N5CCOCC5)n4c3)ccc2o1 [Compound A]
- %TGI (Day 29) (MDA-MB-361 xenografts; Compound B 0.3 mg/kg, Compound A 60 mg/kg, alone or combined, PO QD 30 days, Day 29): 77.4%
- MTV on Day 29 (MDA-MB-361 xenografts; Compound B 0.3 mg/kg, Compound A 60 mg/kg, alone or combined, PO QD, n = 8): 165 mm^3 and 165 ± 105.8 mm^3
- %TGI (Day 65) (MDA-MB-361 xenografts; based on the control group (n = 4) on Day 65): 69.5%
- inhibition of proliferation of tumor cells [1]: preferentially inhibits proliferation
- inhibition of Akt phosphorylation at serine 473 ([2]; FIG. 12A): inhibition of Akt phosphorylation at serine 473
- inhibition of the PI3K pathway in cell lines with elevated PI3K α activity ([2]; MDA-MB-361, MDA-MB-453, SKBr3 breast cancer cells, FIG. 11): inhibition of the PI3K pathway
